This assay deals with T1, IL-23R (Homo sapiens, UniProt Q5VWK5).
T1 construct: HEK293 cells containing IL-23R, IL-12RP31 and a firefly luciferase reporter gene driven by a STAT-inducible promoter (Promega); host or cells: HEK293
T1 sequence (Q5VWK5 24-629): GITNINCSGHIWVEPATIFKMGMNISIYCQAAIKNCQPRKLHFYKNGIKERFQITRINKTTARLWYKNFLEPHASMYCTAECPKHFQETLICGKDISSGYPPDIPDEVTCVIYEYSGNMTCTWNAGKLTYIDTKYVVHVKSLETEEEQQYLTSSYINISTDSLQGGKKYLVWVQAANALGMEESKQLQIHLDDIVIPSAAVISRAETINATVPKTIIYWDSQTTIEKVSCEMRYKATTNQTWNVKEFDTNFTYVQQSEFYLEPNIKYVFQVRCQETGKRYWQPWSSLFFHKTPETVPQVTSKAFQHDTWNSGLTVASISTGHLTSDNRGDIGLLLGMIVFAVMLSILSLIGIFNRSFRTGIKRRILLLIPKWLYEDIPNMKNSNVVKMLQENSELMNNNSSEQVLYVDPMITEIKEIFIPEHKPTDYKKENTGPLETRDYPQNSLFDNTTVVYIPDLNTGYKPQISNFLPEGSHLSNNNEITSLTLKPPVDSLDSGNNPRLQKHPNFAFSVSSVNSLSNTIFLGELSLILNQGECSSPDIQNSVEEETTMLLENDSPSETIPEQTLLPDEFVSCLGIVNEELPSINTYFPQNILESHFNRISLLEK
Nature of the assay: IL23R Reporter Assay. The class given is cell-based. The essentials:
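Luminescence from BioGlo, read after cells were moved to 20 °C, followed a 5 h incubation at 37 °C, 5% CO2 with DMSO-diluted test compounds.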
(Reporter assays use an easily measured gene product as a stand-in for the process of interest.)

Starred links: 1 amine or outer side, 2 acyl side, 3 side chain; linkers in the order of their positions; H or OH if unused. Positions of bridges follow the written chain, without caps; N, C: chain ends. Non-standard residues stand in square brackets, D forms with d. Residues, ends and D or L forms follow the SMILES beside them. Groups on a side chain read outwards from the residue. *: point of attachment. X4 = O=C(O)CCCCCCCCCCCCCCC(=O)NC[C@H](NC(=O)CCCCCCCCCCCCCCC(=O)O)C(=O)*; Decanoyl(10-(4-HOOC-PhO)) = O=C(O)c1ccc(OCCCCCCCCCC(=O)*)cc1; Decanoyl(10-O(3-COOH-Ph)) = O=C(O)c1cccc(OCCCCCCCCCC(=O)*)c1; Trp(7-Me) = Cc1cccc2c(C[C@H](N)C(=O)O)c[nH]c12; C18 diacid = O=C(O)CCCCCCCCCCCCCCCCC(=O)*; γGlu = O=C(O)[C@H](CCC(=O)[*:2])N[*:1]; 2Nal = N[C@@H](Cc1ccc2ccccc2c1)C(=O)O; AEF = NCCOc1ccc(C[C@H](N)C(=O)O)cc1; 3Pal = N[C@@H](Cc1cccnc1)C(=O)O; Pen = CC(C)(S)[C@H](N)C(=O)O; Thp = NC1(C(=O)O)CCOCC1; AEEA = NCCOCCOCC(=O)O; Sar = CNCC(=O)O

As to `CC(=O)NCCCC[C@@H]1NC(=O)[C@H](Cc2c[nH]c3c(C)cccc23)NC(=O)[C@H]([C@@H](C)O)NC(=O)[C@H](CC(N)=O)NC(=O)[C@@H](NC(C)=O)C(C)(C)SSC(C)(C)[C@@H](C(=O)N[C@@H](Cc2ccc(OCCN)cc2)C(=O)N[C@@H](Cc2ccc3ccccc3c2)C(=O)NC2(C(=O)N[C@@H](CCCCNC(=O)COCCOCCNC(=O)COCCOCCNC(=O)CC[C@H](NC(=O)CCCCCCCCCOc3cccc(C(=O)O)c3)C(=O)O)C(=O)N[C@@H](CC(N)=O)C(=O)N[C@@H](Cc3cccnc3)C(=O)N(C)CC(N)=O)CCOCC2)NC1=O` [Example 97, MeCO-Pen*-N-T-7MeW-K(Ac)-Pen*-AEF-2Nal-THP-K(PEG2PEG2gEmXOH)-N-3Pya-Sar-CONH2] (Ac-[Pen]NT[Trp(7-Me)]K(Ac)[Pen][AEF][2Nal][Thp]K([AEEA-AEEA-γGlu-Decanoyl(10-O(3-COOH-Ph))])N[3Pal][Sar]-NH2; disulfide 1-6), half-maximal inhibition (IC50) required 0.0082 nM. This lies in the picomolar range. The result for `CC(=O)NCCCC[C@@H]1NC(=O)[C@H](Cc2c[nH]c3c(C)cccc23)NC(=O)[C@H]([C@@H](C)O)NC(=O)[C@H](CCCCNC(=O)COCCOCCNC(=O)COCCOCCNC(=O)[C@@H]2CCCN2C(=O)[C@@H]2CCCN2C(=O)[C@@H]2CCCN2C(=O)CC[C@H](NC(=O)CCCCCCCCCCCCCCCCC(=O)O)C(=O)O)NC(=O)[C@@H](NC(=O)[C@@H](CCCNC(=N)N)NC(C)=O)C(C)(C)SSC(C)(C)[C@@H](C(=O)N[C@@H](Cc2ccc(OCCN)cc2)C(=O)N[C@@H](Cc2ccc3ccccc3c2)C(=O)NC2(C(=O)N[C@@H](CCCCNC(C)=O)C(=O)N[C@@H](CC(N)=O)C(=O)N[C@@H](Cc3cccnc3)C(=O)N(C)CC(N)=O)CCOCC2)NC1=O` [Example 99, MeCO-r-Pen*-K(PEG2PEG2PPPgEC18OH)-T-7MeW-K(Ac)-Pen*-AEF-2Nal-THP-K(Ac)-N-3Pya-Sar-CONH2] (Ac-[dR][Pen]K([AEEA-AEEA-Pro-Pro-Pro-γGlu-C18 diacid])T[Trp(7-Me)]K(Ac)[Pen][AEF][2Nal][Thp]K(Ac)N[3Pal][Sar]-NH2; disulfide 2-7) reads 0.096 nM; that for `CC(=O)NCCCC[C@@H]1NC(=O)[C@H](Cc2c[nH]c3c(C)cccc23)NC(=O)[C@H]([C@@H](C)O)NC(=O)[C@H](CC(N)=O)NC(=O)[C@@H](NC(C)=O)C(C)(C)SSC(C)(C)[C@@H](C(=O)N[C@@H](Cc2ccc(OCCN)cc2)C(=O)N[C@@H](Cc2ccc3ccccc3c2)C(=O)NC2(C(=O)N[C@@H](CCCCNC(=O)COCCOCCNC(=O)COCCOCCNC(=O)[C@@H]3CCCN3C(=O)CC[C@H](NC(=O)CCCCCCCCCCCCCCCCC(=O)O)C(=O)O)C(=O)N[C@@H](CC(N)=O)C(=O)N[C@@H](Cc3cccnc3)C(=O)N(C)CC(N)=O)CCOCC2)NC1=O` [Example 105, MeCO-Pen*-N-T-7MeW-K(Ac)-Pen*-AEF-2Nal-THP-K(PEG2PEG2PgEC18OH)-N-3Pya-Sar-CONH2] (Ac-[Pen]NT[Trp(7-Me)]K(Ac)[Pen][AEF][2Nal][Thp]K([AEEA-AEEA-Pro-γGlu-C18 diacid])N[3Pal][Sar]-NH2; disulfide 1-6), 0.089 nM; that for `CC(=O)NCCCC[C@@H]1NC(=O)[C@H](Cc2c[nH]c3c(C)cccc23)NC(=O)[C@H]([C@@H](C)O)NC(=O)[C@H](CC(N)=O)NC(=O)[C@@H](NC(C)=O)C(C)(C)SSC(C)(C)[C@@H](C(=O)N[C@@H](Cc2ccc(OCCN)cc2)C(=O)N[C@@H](Cc2ccc3ccccc3c2)C(=O)NC2(C(=O)N[C@@H](CCCCNC(=O)COCCOCCNC(=O)COCCOCCNC(=O)[C@@H]3CCCN3C(=O)[C@@H]3CCCN3C(=O)[C@@H]3CCCN3C(=O)CC[C@H](NC(=O)CCCCCCCCCCCCCCCCC(=O)O)C(=O)O)C(=O)N[C@@H](CC(N)=O)C(=O)N[C@@H](Cc3cccnc3)C(=O)N(C)CC(N)=O)CCOCC2)NC1=O` [Example 107, MeCO-Pen*-N-T-7MeW-K(Ac)-Pen*-AEF-2Nal-THP-K(PEG2PEG2PPPgEC18OH)-N-3Pya-Sar-CONH2], 0.09 nM.

As for `CC(=O)NCCCC[C@@H]1NC(=O)[C@H](Cc2c[nH]c3c(C)cccc23)NC(=O)[C@H]([C@@H](C)O)NC(=O)[C@H](CC(N)=O)NC(=O)[C@@H](NC(C)=O)C(C)(C)SSC(C)(C)[C@@H](C(=O)N[C@@H](Cc2ccc(OCCN)cc2)C(=O)N[C@@H](Cc2ccc3ccccc3c2)C(=O)NC2(C(=O)N[C@@H](CCCCNC(=O)COCCOCCNC(=O)COCCOCCNC(=O)[C@H]3CCCN3C(=O)[C@H]3CCCN3C(=O)[C@H]3CCCN3C(=O)CC[C@H](NC(=O)CCCCCCCCCCCCCCCCC(=O)O)C(=O)O)C(=O)N[C@@H](CC(N)=O)C(=O)N[C@@H](Cc3cccnc3)C(=O)N(C)CC(N)=O)CCOCC2)NC1=O` [Example 108, MeCO-Pen*-N-T-7MeW-K(Ac)-Pen*-AEF-2Nal-THP-K(PEG2PEG2pppgEC18OH)-N-3Pya-Sar-CONH2], 0.15 nM corresponded to half-maximal inhibition (IC50).

Turning to `CC(=O)NCCCC[C@@H]1NC(=O)[C@H](Cc2c[nH]c3c(C)cccc23)NC(=O)[C@H]([C@@H](C)O)NC(=O)[C@H](CC(N)=O)NC(=O)[C@@H](NC(C)=O)C(C)(C)SSC(C)(C)[C@@H](C(=O)N[C@@H](Cc2ccc(OCCN)cc2)C(=O)N[C@@H](Cc2ccc3ccccc3c2)C(=O)NC2(C(=O)N[C@@H](CCCCNC(=O)COCCOCCNC(=O)COCCOCCNC(=O)CC[C@H](NC(=O)CCCCCCCCCOc3ccc(C(=O)O)cc3)C(=O)O)C(=O)N[C@@H](CC(N)=O)C(=O)N[C@@H](Cc3cccnc3)C(=O)N(C)CC(N)=O)CCOCC2)NC1=O` [Example 111, MeCO-Pen*-N-T-7MeW-K(Ac)-Pen*-AEF-2Nal-THP-K(PEG2PEG2gEpXOH)-N-3Pya-Sar-CONH2] (Ac-[Pen]NT[Trp(7-Me)]K(Ac)[Pen][AEF][2Nal][Thp]K([AEEA-AEEA-γGlu-Decanoyl(10-(4-HOOC-PhO))])N[3Pal][Sar]-NH2; disulfide 1-6), the half-maximal inhibitory concentration (IC50) (commonly the point on the concentration scale where inhibition reaches its midpoint) was found to be 0.048 nM. The compound `CC(=O)NCCCC[C@@H]1NC(=O)[C@H](Cc2c[nH]c3c(C)cccc23)NC(=O)[C@H]([C@@H](C)O)NC(=O)[C@H](CC(N)=O)NC(=O)[C@@H](NC(C)=O)C(C)(C)SSC(C)(C)[C@@H](C(=O)N[C@@H](Cc2ccc(OCCN)cc2)C(=O)N[C@@H](Cc2ccc3ccccc3c2)C(=O)NC2(C(=O)N[C@@H](CCCCNC(=O)[C@H](CNC(=O)CCCCCCCCCCCCCCC(=O)O)NC(=O)CCCCCCCCCCCCCCC(=O)O)C(=O)N[C@@H](CC(N)=O)C(=O)N[C@@H](Cc3cccnc3)C(=O)N(C)CC(N)=O)CCOCC2)NC1=O` [Example 114, MeCO-Pen*-N-T-7MeW-K(Ac)-Pen*-AEF-2Nal-THP-K(DAP-(C16OH)2)-N-3Pya-Sar-CONH2] (Ac-[Pen]NT[Trp(7-Me)]K(Ac)[Pen][AEF][2Nal][Thp]K(X4)N[3Pal][Sar]-NH2; disulfide 1-6) gave a 50% inhibitory concentration (IC50) of 0.15 nM.

Compound `CC(=O)NCCCC[C@@H]1NC(=O)[C@H](Cc2c[nH]c3c(C)cccc23)NC(=O)[C@H]([C@@H](C)O)NC(=O)[C@H](CC(N)=O)NC(=O)[C@@H](NC(C)=O)C(C)(C)SSC(C)(C)[C@@H](C(=O)N[C@@H](Cc2ccc(OCCN)cc2)C(=O)N[C@@H](Cc2ccc3ccccc3c2)C(=O)NC2(C(=O)N[C@@H](CCCCNC(=O)COCCOCCNC(=O)COCCOCCNC(=O)CC[C@H](NC(=O)[C@H](CNC(=O)CCCCCCCCCCCCCCC(=O)O)NC(=O)CCCCCCCCCCCCCCC(=O)O)C(=O)O)C(=O)N[C@@H](CC(N)=O)C(=O)N[C@@H](Cc3cccnc3)C(=O)N(C)CC(N)=O)CCOCC2)NC1=O` [Example 116, MeCO-Pen*-N-T-7MeW-K(Ac)-Pen*-AEF-2Nal-THP-K(PEG2PEG2gE-DAP(C16OH)2)-N-3Pya-Sar-CONH2] showed an IC50 of 0.15 nM.

For the origin of these results see patent publication US12478617B2, “Lipidated peptide inhibitors of interleukin-23 receptor” (JANSSEN BIOTECH, INC., priority 2021, dated 2025).
